Laboratory results reported in patent US20030068802A1, “Use of streptococcus pneumoniae acyl carrier protein synthase crystal structure in diagnostics, antimicrobial drug design, and biosensors” (priority 2000, published 2003).

What was measured:
[1] = target: T1, purified AcpS of S. pneumoniae (Streptococcus pneumoniae, UniProt P0A2W7); assay: HPLC-based AcpS enzyme assay (conversion of apo-ACP to holo-ACP); assay type: biochemical; settings: for relative activity as substrate of AcpS: CoA = 100, 1.5 μM apo-ACP, 20 μM CoA or CoA derivative, 19 nM AcpS; for Ki: 3.7 nM AcpS
T1 construct: made in house; host or cells: E. coli BL21 (pLysS)/pRBP-19 (pET-11a)
T1 sequence (P0A2W7 1-120): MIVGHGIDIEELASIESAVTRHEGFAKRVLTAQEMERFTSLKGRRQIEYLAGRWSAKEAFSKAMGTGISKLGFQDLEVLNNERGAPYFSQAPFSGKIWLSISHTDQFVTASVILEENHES
Protocol: (§1) Unless otherwise indicated, reaction mixtures contain 50 mM Tris-HCl, pH 7.0, 10 mM MgCl2, 2.5-50 μM CoA, 0.25-6.0 μM purified apo-ACP of S. pneumoniae, and 3.7 nM purified AcpS of S. pneumoniae, and are incubated at 37° C. for 9 min. Reactions are stopped by the addition of 50 mM EDTA. The formation of holo-ACP is determined by an HPLC or a trichloroacetic acid (TCA) precipitation method (see below). An HPLC-based assay is adapted from the method described previously (Lambalot and Walsh, 1997). This assay monitors the conversion of apo-ACP to holo-ACP. Reaction mixtures (100 μl each) are injected into an analytical HPLC column (Vydac protein C4 reverse-phase; P. J. Cobert Associates, Inc., St. Louis, Mo.) equilibrated with 45% acetonitrile in 0.1% trifluoroacetic acid. The column is eluted with an 8 ml linear gradient of 45-80% acetonitrile. The column elution profiles are monitored at 220 nm. Under these conditions, holo-ACP migrates faster than apo-ACP. The amount of holo-ACP formed is estimated by comparing the peak area of the holo-ACP formed with those of both apo- and holo-ACP.
To examine the substrate specificity of AcpS, a variety of CoA derivatives (acetyl-CoA, malonyl-CoA, acetoacetyl-CoA, desulfo-CoA, and dephospho-CoA) are tested. All reaction mixtures contain 1.5 μM apo-ACP, 20 μM CoA or CoA derivative, and 19 nM AcpS, and the formation of holo-ACP is determined by the HPLC method.
For the determination of Km and Vmax (kcat) of AcpS for apo-ACP, reaction mixtures (in quadruplicate) contain 20 μM CoA, 0.25 to 100 μM apo-ACP, and 3.7 nM. AcpS. The formation of holo-ACP is measured by the HPLC method or the TCA precipitation method. To determine Km for CoA, the reaction conditions are the same as those described above except that the concentration of apo-ACP is 2.0 μM, and the concentrations of CoA were 5 to 600 μM. […]
To evaluate the inhibition of AcpS activity by 3′,5′-ADP with respect to CoA, reaction mixtures contain 1-60 μM 3′,5′-ADP, 2.5-60 μM CoA, 1.0 μM apo-ACP, and 3.7 nM AcpS. To evaluate the inhibition of AcpS activity by 3′,5′-ADP with respect to apo-ACP, reaction mixtures contain 1-60 μM 3′,5′-ADP, 0.5-6.0 μM apo-ACP, 20 μM CoA, and 3.7 nM AcpS. The formation of holo-ACP is analyzed by the HPLC method.

[2] = target: T1, purified AcpS of S. pneumoniae; assay: Substrate binding to AcpS by gel filtration column chromatography, mass spectrometry and filter binding; settings: 27 μM AcpS, 10 mM MgCl2, 100 μM apo-ACP or 50 μM CoA, room temperature 30 min
Protocol: To determine whether AcpS binds directly to apo-ACP or CoA in the absence of the other substrate, a purified AcpS preparation (27 μM) is first mixed with 10 mM MgCl2, and then either 100 μM apo-ACP or 50 μM CoA. The mixture is incubated at room temperature for 30 min and subjected to gel filtration column chromatography (S-75 Superdex) under the conditions described above. The fractions containing the AcpS-apo-ACP complex and unbound apo-ACP are analyzed by SDS-PAGE (16% tricine gels), SYPRO Orange staining, and mass spectrometry.
The order of substrate binding to AcpS can be analyzed by determining the binding of CoA and apo-ACP to purified AcpS by gel filtration column chromatography, mass spectrometry, or filter binding assays. If CoA binds to AcpS first and forms an enzyme-substrate complex that is required for the next reaction with apo-ACP, then a stable enzyme-substrate complex should be detectable. […]
Whether apo-ACP binds to AcpS in the absence of CoA, a mixture of AcpS and apo-ACP (apo-ACP/AcpS=5:1) can be subjected to gel filtration column chromatography and analysis of the column fractions by SDS-PAGE. […] Consistent with the formation of the AcpS-apo-ACP complex, the presence of apo-ACP is also detected in the fractions containing purified AcpS (FIG. 2B). […]

[3] = substrate: CC(C)(COP(=O)(O)OP(=O)(O)OC[C@H]1O[C@@H](n2cnc3c(N)ncnc32)[C@H](O)[C@@H]1OP(=O)(O)O)[C@@H](O)C(=O)NCCC(=O)NCCS; assay: TCA precipitation AcpS assay ([3H]CoA incorporation into apo-ACP); assay type: biochemical, Streptococcus pneumoniae; settings: other: TCA precipitation method
Protocol: AcpS activity is also assayed by using a TCA precipitation method (Lambalot and Walsh, 1995). This method measures the incorporation of the 3H-labeled 4′-phospho-pantotheine group from [^3H]CoA into apo-ACP. Reaction conditions are the same as those described for the HPLC assay, except that [^3H]COA (specific activity, 1.5 Ci/mmol, NEN Life Science Products, Boston, Mass.) is used alone or in combination with CoA. Reactions are stopped by the addition of 0.9 ml of cold 10% TCA followed by 37 μg of bovine serum albumin (BSA). Precipitated protein is collected by centrifugation (a microfuge at 14,000 rpm) for 5 min and washed twice with ice-cold 10% TCA. The protein collected is resuspended in 150 μl of 1M Tris base and 0.1% Triton X-100. The resulting suspension (100 μl) is mixed with 2.5 ml of Ready Protein+scintillation fluid (Beckman, Fullerton, Calif.), and counted using an LS 60001C scintillation counter (Beckman).
For the determination of Km and Vmax (kcat) of AcpS for apo-ACP, reaction mixtures (in quadruplicate) contain 20 μM CoA, 0.25 to 100 μM apo-ACP, and 3.7 nM. AcpS. The formation of holo-ACP is measured by the HPLC method or the TCA precipitation method. To determine Km for CoA, the reaction conditions are the same as those described above except that the concentration of apo-ACP is 2.0 μM, and the concentrations of CoA were 5 to 600 μM.

[4] = substrate: CC(C)(COP(=O)(O)OP(=O)(O)OC[C@H]1O[C@@H](n2cnc3c(N)ncnc32)[C@H](O)[C@@H]1OP(=O)(O)O)[C@@H](O)C(=O)NCCC(=O)NCCS; assay: HPLC-based AcpS enzyme assay (conversion of apo-ACP to holo-ACP); assay type: biochemical, Streptococcus pneumoniae; settings: other: fixed apo-ACP 2 μM, various CoA, HPLC method; pH 7.0; 37.0 °C
Protocol: as §1, with “The amount of holo-ACP formed is estimated by comparing the peak area of the holo-ACP formed with those of both apo- and holo-ACP.” left out
To examine the substrate specificity of AcpS, a variety of CoA derivatives (acetyl-CoA, malonyl-CoA, acetoacetyl-CoA, desulfo-CoA, and dephospho-CoA) are tested. All reaction mixtures contain 1.5 μM apo-ACP, 20 μM CoA or CoA derivative, and 19 nM AcpS, and the formation of holo-ACP is determined by the HPLC method. […]

[5] = target: Streptococcus pneumoniae apo-acyl carrier protein (apo-ACP)

In the case of `CC(C)(COP(=O)(O)OP(=O)(O)OC[C@H]1O[C@@H](n2cnc3c(N)ncnc32)[C@H](O)[C@@H]1OP(=O)(O)O)[C@@H](O)C(=O)NCCC(=O)NCCSC(=O)CC(=O)O` [malonyl-CoA], the “relative activity as substrate of AcpS” value [1] is reported as 12.

In the case of `CC(C)(COP(=O)(O)OP(=O)(O)OC[C@H]1O[C@@H](n2cnc3c(N)ncnc32)[C@H](O)[C@@H]1OP(=O)(O)O)[C@@H](O)C(=O)NCCC(=O)NCCS` [CoA, Coenzyme A], the “relative activity as substrate of AcpS” value [1] is reported as 100 and the “binding to AcpS in the absence of the other substrate” value [2] is reported as “does not appear to bind”.

With `CCNC(=O)CCNC(=O)[C@H](O)C(C)(C)COP(=O)(O)OP(=O)(O)OC[C@H]1O[C@@H](n2cnc3c(N)ncnc32)[C@H](O)[C@@H]1OP(=O)(O)O` [desulfo-CoA] the “relative activity as substrate of AcpS” value [1] was 76.

In the case of `CC(C)(COP(=O)(O)OP(=O)(O)OC[C@H]1O[C@@H](n2cnc3c(N)ncnc32)[C@H](O)[C@@H]1O)[C@@H](O)C(=O)NCCC(=O)NCCS` [dephospho-CoA], the “relative activity as substrate of AcpS” value [1] is reported as 0.

`CC(=O)SCCNC(=O)CCNC(=O)[C@H](O)C(C)(C)COP(=O)(O)OP(=O)(O)OC[C@H]1O[C@@H](n2cnc3c(N)ncnc32)[C@H](O)[C@@H]1OP(=O)(O)O` [acetyl-CoA] was tested, and the “relative activity as substrate of AcpS” value [1] was 91.

`CC(=O)CC(=O)SCCNC(=O)CCNC(=O)[C@H](O)C(C)(C)COP(=O)(O)OP(=O)(O)OC[C@H]1O[C@@H](n2cnc3c(N)ncnc32)[C@H](O)[C@@H]1OP(=O)(O)O` [acetoacetyl-CoA] was tested, and the “relative activity as substrate of AcpS” value [1] was 65.

In the case of `Nc1ncnc2c1ncn2[C@@H]1O[C@H](COP(=O)(O)O)[C@@H](OP(=O)(O)O)[C@H]1O` [3′,5′-ADP, 3′,5′-adenosine diphosphate], the Ki ([1]; inhibition of AcpS activity with respect to CoA, various CoA concentrations, fixed apo-ACP 1.0 μM, Dixon plot FIG. 7C) is reported as 6 µM, the Ki ([1]; inhibition of AcpS activity with respect to apo-ACP, various apo-ACP concentrations, fixed CoA 20 μM, Dixon plot FIG. 7D) is reported as 2.5 µM and the “pattern of inhibition with respect to CoA (double reciprocal plots)” value ([1]; various CoA, fixed apo-ACP) is reported as “simple competitive pattern”. For the same molecule, the “pattern of inhibition with respect to apo-ACP (double reciprocal plots)” value ([1]; various apo-ACP, fixed CoA) was “linear-mixed pattern”.

B1: purified AcpS of S. pneumoniae (Streptococcus pneumoniae R6) (protein)
chain: MIVGHGIDIEELASIESAVTRHEGFAKRVLTAQEMERFTSLKGRRQIEYLAGRWSAKEAFSKAMGTGISKLGFQDLEVLNNERGAPYFSQAPFSGKIWLSISHTDQFVTASVILEENHES
notes: made in house; host or cells: E. coli BL21 (pLysS)/pRBP-19 (pET-11a)
In the case of B1, the Km [3] is reported as 7.1 ± 0.4 µM, the Km [4] is reported as 11.5 ± 0.9 µM and the “Km (for apo-ACP), HPLC assay of holo-ACP formation, high apo-ACP concentrations” value [5] is reported as 109 ± 6.8 µM. The Km (for apo-ACP), HPLC assay of holo-ACP formation, low apo-ACP concentrations [5] was 0.5 µM, the apparent Km for apo-ACP, TCA precipitation assay with [3H]CoA [5] was 1.3 µM and the “fold decrease of affinity (Km) at high versus low apo-ACP concentrations” value [5] was “approximately 200-fold”.
